In patent publication US20160051556A1, “Method and Pharmaceutical Composition for use in the Treatment of Chronic Liver Diseases Associated with a Low Hepcidin Expression” (INSERM (INSTITUT NATIONAL DE LA SANTÉ ET DE LA RECHERCHE …, priority 2013, published 2016):

Columns and labels:
Type in all cases: in vivo, mouse
Hamp mRNA = test: Liver Hamp mRNA by qRT-PCR in Bmp6-/- males treated with gefitinib; conditions: 7 w.o. Bmp6-/- males
Method: (§1) Bmp6 null mice (Bmp^6mlRob) obtained from E. Robertson and wild-type controls on a CD1 background were sacrificed at 7, 12, or 30 weeks of age. Liver, spleen, heart, pancreas and kidney samples were dissected for RNA isolation, flash frozen in liquid nitrogen and stored at −80° C. Hamp-deficient mice were kindly provided by S. Vaulont. They were derived on a C57BL/6 background in the lab of T. Ganz. Gonadectomies and sham operations were performed under anesthesia at 4 weeks of age. Testosterone (10 mg/kg; Sigma) was suspended in corn oil and a total volume of 60 μL per mouse was injected sc everyday for a week. To investigate the role of erythropoiesis in the down-regulation of hepcidin by testosterone, Bmp6−/− females were whole-body irradiated with a sublethal dose of 60Co (6 Gy) on day 1, administered daily doses of testosterone (1 μg/g) starting on day 2, and sacrificed on day 8. To investigate the effect of EGF signaling on testosterone-induced hepcidin down-regulation, the selective EGFR inhibitor Gefitinib (Iressa) was stirred into 1% Tween 80 and administered orally daily from days −1 to 7 to Bmp6−/− males (200 mg/kg; Euromedex). Mice were housed under controlled lighting and temperature conditions, fed a chow of normal iron content (250 mg iron/kg; SAFE, Augy, France) ad libidum, and were fasted for 14 h before they were killed. Experimental protocols were approved by the Midi-Pyrenees Animal Ethics Committee.
(§2) Total RNA from mouse liver was extracted using Trizol (Invitrogen). cDNA was synthesized using MMLV-RT (Promega). The sequences of the primers for target genes and the reference gene Hprt are listed in supplemental Table 1. Quantitative PCR reactions were prepared with LightCycler 480 DNA SYBR Green I Master reaction mix (Roche Diagnostics, Mannheim, Germany) and run in duplicate on a LightCycler 480 Instrument (Roche Diagnostics).
(§3) Data were first normalized to the invariant control Hprt and, for each sample and each target gene, −ΔCt=−[Ct target gene−Ct Hprt] was calculated. Because the numerical value of Ct is inversely related to the amount of amplicon in the reaction, the higher the −ΔCt value, the greater the amount of target amplicon. Values shown are means±SEM. Target gene expression in an individual is proportional to 2^−ΔCt. However, individual expression values are usually shown on a log scale and, because log 2 (2^−ΔCt)[…], −ΔCt data rather than 2^−ΔCt data are plotted on the y-axes. An increase of 1 on the y-axis thus corresponds to a 2-fold increase in target gene expression. ΔCt data are the observed values from experimental procedures and it is recommended that ΔCt data rather 2−ΔCt data be the subject of statistical analysis (41). […]

Hepcidin (Hamp) mRNA = test: Liver hepcidin (Hamp) mRNA by qRT-PCR after testosterone administration to ovariectomized Bmp6-/- mice
Egfr mRNA = test: Liver Egfr mRNA by qRT-PCR after testosterone administration to gonadectomized Bmp6-/- females
Method: as §1, §2, §3

C-terminal phospho-Smad5 = C-terminal phospho-Smad5 immunoblot of liver extracts, gonadectomized Bmp6-/- females treated with testosterone; conditions: administration of testosterone to Bmp6-/- females
Method: as §1, with “Mice were housed under controlled lighting and temperature conditions, fed a chow of normal iron content (250 mg iron/kg; SAFE, Augy, France) ad libidum, and were fasted for 14 h before they were killed. Experimental protocols were approved by the Midi-Pyrenees Animal Ethics Committee.” left out
(§4) Livers were homogeneized in a FastPrep®-24 Instrument (MP Biomedicals) for 15 sec at 4 m/s. […] Liver proteins were quantified using a protein assay kit (Bio-Rad). […]

C-terminal phospho-Smad2 = C-terminal phospho-Smad2 immunoblot of liver extracts, gonadectomized Bmp6-/- females treated with testosterone; conditions: administration of testosterone to Bmp6-/- females
Method: as §1, with “Mice were housed under controlled lighting and temperature conditions, fed a chow of normal iron content (250 mg iron/kg; SAFE, Augy, France) ad libidum, and were fasted for 14 h before they were killed. Experimental protocols were approved by the Midi-Pyrenees Animal Ethics Committee.” left out
as §4

[1] = gefitinib 200 mg/kg orally daily for 7 days
[2] = non-irradiated 7 w.o. ovariectomized Bmp6-/- mice, testosterone propionate 10 mg/kg sc daily for 7 days
[3] = whole-body irradiated ovariectomized Bmp6-/- mice, daily testosterone days 2 to 8
[4] = gonadectomized Bmp6-/- females, testosterone for a week

COc1cc2ncnc(Nc3ccc(F)c(Cl)c3)c2cc1OCCCN1CCOCC1 [gefitinib, 4-quinazolinamine, N-(3-chloro-4-fluorophenyl)-7-methoxy-6-[3-(4-morpholinyl)propoxy]-(9CI)]
Hamp mRNA -ΔΔCt (gefitinib vs vehicule) (Hamp mRNA; [1]): 2.76
Hamp mRNA mean -ΔCt (Ct Hprt - Ct Hamp) (Hamp mRNA; [1]): 4.02
Hamp expression on average higher than in mice treated with vehicule (Hamp mRNA; gefitinib 200 mg/kg orally daily for 7 days, liver mRNA): 6.8 fold
Effect on Hamp mRNA levels (in words) (Hamp mRNA; gefitinib daily for 7 days): significant induction of Hamp mRNA levels

CCC(=O)O[C@H]1CC[C@H]2[C@@H]3CCC4=CC(=O)CC[C@]4(C)[C@H]3CC[C@]12C [testosterone, testosterone propionate]
Effect on hepcidin expression in irradiated mice (in words) (Hepcidin (Hamp) mRNA; irradiated ovariectomized Bmp6-/- females, testosterone propionate 10 mg/kg days 2 to 8): downregulation of hepcidin expression to levels similar to those observed in non irradiated control mice
Hamp mRNA -ΔΔCt (testosterone vs vehicule) (Hepcidin (Hamp) mRNA; [2]): −3.95
Hamp mRNA mean -ΔCt (Ct Hprt - Ct Hamp) (Hepcidin (Hamp) mRNA; [2]): 1.27
Hepcidin expression repressed on average (vs vehicule) (Hepcidin (Hamp) mRNA; non-irradiated 7 w.o. ovariectomized Bmp6-/- mice, testosterone propionate 10 mg/kg sc daily for 7 days, liver mRNA): 15.4 fold
Hepcidin expression reduced on average (vs vehicule) (Hepcidin (Hamp) mRNA; whole-body irradiated (60Co, 6 Gy) ovariectomized Bmp6-/- mice, daily testosterone days 2 to 8): 16.3 fold
Hamp mRNA -ΔΔCt (testosterone vs vehicule) (Hepcidin (Hamp) mRNA; [3]): −4.03
Hamp mRNA mean -ΔCt (Ct Hprt - Ct Hamp) (Hepcidin (Hamp) mRNA; [3]): 0.81
Egfr mRNA -ΔΔCt (testosterone vs vehicule) (Egfr mRNA; [4]): 1.72
Egfr mRNA mean -ΔCt (Ct Hprt - Ct Egfr) (Egfr mRNA; [4]): 0.88
Egfr expression increased on average (vs vehicule) (Egfr mRNA; gonadectomized Bmp6-/- females, testosterone for a week, liver mRNA): 3.3 fold
Effect on liver Egfr expression (in words) (Egfr mRNA; ovariectomized Bmp6-/- females treated with testosterone for a week): induced
C-terminal Smad phosphorylation (Smad5) in liver (in words) (C-terminal phospho-Smad5): reduced
C-terminal Smad2 phosphorylation in liver (in words) (C-terminal phospho-Smad2): increased
